Source: patent US10801023B2, “Methods of identifying biologically active random peptides in plants and libraries of plants expressing candidate biologically active random peptides” (University of Florida Research Foundation, Inc., priority 2015, dated 2020)

What was measured:
[1] = system: Arabidopsis thaliana plants; test: Screening of library of transformed plants expressing candidate BARPs for new phenotypes; type: in vivo; settings: transgenic Arabidopsis thaliana expressing the BARP, scored from emergence to senescence
Description: In the present example, the methods of the present disclosure were used to generate a library of test nucleic acids encoding a plurality of candidate BARPs, each having a core 6 amino acid random peptide sequence flanked by two cysteine residues. The sequences were also flanked by start and stop codons and Gateway® sequences, such as illustrated in FIG. 1. PCR was used with primers corresponding to the known Gateway flanking sequences to generate the test nucleic acid library. The oligonucleotides were then cloned into bacterial vectors including genes for kanamycin resistance to create a recombination vector library. The vectors were then moved to Agrobacterium tumefaciens strain […] and used to transform Arabidopsis thaliana plants. Seeds were collected from the transformed plants and used to grow new plants. These plants were observed from seedling through the plant lifecycle and observed for new phenotypes. Several new phenotypes emerged, DNA was extracted from the plants displaying new phenotypes, and the sequence of the candidate BARP from the plants was determined. The procedures and results are described in detail below.
The test nucleic acid sequences were synthesized using conserved initiator and terminator sequences flanking 18 random nucleotides, which provides a peptide that is ten amino acids long, with six of the core amino acids randomized, following a Met-Ala-Cys and ending with a Cys-term. This template is illustrated in FIG. 1. In the present example, the corresponding nucleic acid sequence was […] (SEQ ID NO: 5; nucleotides 14-46 of SEQ ID NO: 1). The cysteine residues in this case provide potential for formation of disulfide bonds that may impart additional structure to the adjacent amino acid loop. Although in this example 18 random nucleotides (identified as “N” in SEQ ID NOs: 1 and 5) were used, any number may be used, as long as it is a multiple of three.
To construct the library of random-core BARP sequences, the above DNA sequence was synthesized as an oligonucleotide sequence, along with flanking sequences corresponding to the Gateway® recombination sequences. The middle portion of the sequence, represented by “N” in FIG. 1, were randomized nucleotides. Known synthesis techniques were used to build the sequences, resulting in a library of PCR products containing test nucleic acid sequences (start codon, spacer codon, cysteine codon, 18 random nucleotides encoding a core candidate BARP sequence, second cysteine codon, and stop codon) flanked by Gateway recombination sequences. Although Gateway® sequences were used in the present examples, other recombination cloning primer sequences could be used or specifically designed.
The library of PCR products containing random test sequences was amplified using PCR based on flanking primers containing Gateway recombination sequences. These reactions produced a population of PCR products each containing the core peptide test sequence flanked by Gateway recombination sequences. These PCR products were introduced to the vector pDONR222 using Gateway recombination, and then transformed into E. coli genotype DH5α. The transformation vector also included the NPTII gene for kanamycin resistance. The E. coli cells were plated on kanamycin plates at low density to obtain single-colony separation. The single colonies each contained a separate plasmid bearing a random peptide sequence.
The colonies were recovered from plates in liquid medium, and the plasmids were isolated. The isolated plasmids represented a library of many independent, random sequences (encoding candidate BARPs) flanked by ‘start’ and ‘stop’ sequences. […]

Arabidopsis plants [2] = test: Plant growth and phenotyping of PEP6 / PEP12 transgenic plants; type: in vivo, Arabidopsis thaliana; settings: transgenic plant in soil; normal-sized plants 25 mm to 30 mm
Description: Two libraries encoding six- and twelve-random amino acid cyclized peptides (denoted PEP6 and PEP12, respectively) were constructed in binary vectors (as illustrated in FIG. 9) using a Gateway cloning strategy and transformed into Arabidopsis. More than 1,500 transgenic plants with the PEP6 T-DNA inserts were isolated and more than 600 transgenic plants were isolated carrying the PEP12 insert, representing a survival ratio of 1.8% and 1.2% respectively under kanamycin selection. To ensure library representation in the population, DNA was prepared from at least fifty transgenic plants, including ten that had small rosette diameter (5 mm to 10 mm) (e.g., those having BARP sequences SEQ ID NO: 14, 16, 6, 19, 21, 23, 26, 28, 30, and 32) compared to normal-sized plants (25 mm to 30 mm; see Table 2). The nucleotide sequences of all amplified random peptide open reading frames (rpORFs) were different, indicating representation of library diversity was maintained throughout the cloning and transformation process. Several phenotypes were visually apparent. […] Some plants showing multiple growth defects were recorded in each phenotype. Bolting plants with multiple inflorescences were transformed with the PEP6 or PEP12 destination library through the floral dipping method (Clough and Bent, 1998, incorporated herein by reference). For selection, seeds were surface sterilized by 70% ethanol for 5 min and 10% bleach for 20 min. Surface-sterilized seeds were plated on ½× MS basal medium with 0.5% Phyto Agar (cat. # M10200 and # A20300, Research Products International) and 50 μg/ml kanamycin for selection. Transgenic seedlings were identified by GFP expression or resistance to kanamycin. Transformed seedlings were grown to the 3-5 true leaf stage on plates and transferred to soil. DNA was extracted from each seedling (Edwards et al., 1991 incorporated herein by reference) for inserted nucleotide sequence identification. An approximately 500 bp DNA fragment containing the random peptide ORF and part of pK7WG2D vector sequence was amplified using primers PEP-F and PEP-R (SEQ ID NOs: 35 and 36, respectively) listed in Table 4 and sequenced. Arabidopsis plants were grown in soil at 20° C. under 16 hour light/8 hour dark conditions. The characterization of phenotypic variations was based on the comparison among seedlings grown in the same pot or flat.

[3] = system: Arabidopsis thaliana plants; test: Independent replication of peptide-induced phenotypes in independent transformant lines; type: in vivo; settings: BARP sequence re-introduced into Arabidopsis thaliana
Protocol: A number of first-transformed generation plants were prepared and phenotypes were observed using the methods described in Example 1, above. In this example some 12-amino-acid-long candidate BARPs were also synthesized and tested. The procedures were the same as for the 6-aa BARPs described in Example 1. These phenotypes were also observed to be stable and inherited in subsequent generations. To verify that the effects observed are due to the expressed peptide and not to other less-likely positional/insertional causes, in this Example, a substantial number of the of the candidate 6 and 12 amino-acid-long BARPs were sequenced and separately transformed into independent plants. […] One microliter was used in a PCR reaction under standard conditions, and using primers corresponding to the attachment (recombinational cloning sequences) of the Gateway vector, the corresponding BARP sequences was amplified. This sequences were then recombined into the pDONR222 vector and then re-ligated into the binary pKWDG2 over-expression vector as described above. This sequence was then re-introduced into Arabidopsis thaliana plants using the floral dipping strategy and selection as noted above. The seedlings were then analyzed for the phenotype as defined by the original transformant. Recapitulation of the phenotype in multiple, independent transformation events provided high evidence of a specific physiological effect of the peptide.

[4] = system: Arabidopsis thaliana plants; test: Quantitative analysis of flowering time of CBF6AA-15 transformant lines; type: in vivo; settings: lines 26, 29, 31 versus wild type Col-0
Description: FIG. 4A is a digital image comparing a wild type A. thaliana plant with 3 separate lines transformed with the 6AA-15 BARP. A bar graph comparing the number of rosette leaves for each line at the time of flowering is illustrated in FIG. 4B. FIGS. 4C-4F are a series of graphs illustrating quantitative analysis of flowering time for the plant lines illustrated in FIG. 4A, with a minimum of 113 plants analyzed per line.
The observed phenotype was also confirmed by the observed number of rosette leaves present on the plant at the time of flowering, where transformants flowered days earlier and after producing fewer leaves. […] A minimum of 113 plants were analyzed per line, and the number of days until flowering was recorded. FIGS. 4C-4F illustrate the distribution of flowering times of wild type plants vs. the three transformant lines, with the mean shifting from 36 days in wild-type plants to […] in the transgenic lines.

Arabidopsis plants [5] = test: Flowering time measurement; type: in vivo, Arabidopsis thaliana
Description: The rpORF were cloned from this seedling PEP6-15 and retransformed into Col-0. A total of 15 independent transgenic lines were isolated and measured on their flowering time. About 75% independent lines had earlier flowering time compared to wild type plants. Thereafter three representative lines 1, 2 and 3, were chosen for detailed analyses (FIG. 11A). […] Thus, the BARP for PEP6-15 (SEQ ID NO: 6, nucleotide sequence SEQ ID NO: 17) appears to produce an earlier flowering time phenotype. […] Three independent PEP6-15 transgenic lines with no transgene segregation were grown directly in soil for the measurement of flowering time. Every line was planted in three 10 cm×10 cm×11 cm pots, and approximately twenty seeds were sown in each pot. The flowering time was recorded as the number of rosette leaves when the inflorescence stem was 0.5-1 cm long. When the majority of plants had flowered, measurement was concluded.

Arabidopsis seedlings = test: Inhibition of hypocotyl elongation under different light conditions; type: in vivo, Arabidopsis thaliana
Protocol: Seeds were surface sterilized using a brief treatment of 70% ethanol and then set to dry on sterile paper discs in a laminar flow hood. The seeds were placed on 1 mM KCl plus 1 mM CaCl2 media containing 1% Phyto Agar on 100 mm square plates and stratified for 48 h. The vertical plates were transferred to various light conditions of varying spectral quality and fluence rates (as described in FIGS. 12A-12B), or complete darkness. […] Plants grown in darkness were placed under one of the narrow bandwidth treatments wrapped in two layers of aluminum foil. After 96 h the plates were scanned and the seedlings were measured using ImageJ software, and the length of the seedlings was reported as a fraction of dark-grown seedling length.

[6] = system: Arabidopsis thaliana seedlings; test: Salt tolerance screen and root elongation on salt media; type: in vivo
Protocol: Also, to test for phenotypes not readily observable under normal conditions, seeds were collected from all plants in sets of nine and stored together, then planted and screened in various stress conditions to identify additional phenotypes. For example, seeds were planted on plant-growth media containing […] to screen for seedlings showing resistance to salt. Populations of BARP containing plants have also been grown in soil under water-deficit stress, leading to identification of peptides that confer tolerance to drought stress up on further evaluation.
Also, to test for phenotypes not readily observable under normal conditions, seeds were collected from all plants, stored, and later planted and screened in various stress conditions to identify additional phenotypes. […] Two lines thrived on the high-salt media, one of them resulting in a conspicuous root phenotype. […] The left-hand bars in the graph in FIG. 7A represent wild-type seedlings, and the right-hand bars show the effect of the peptide. Root elongation was measured four days after germination (Day 0) and then again at four-day intervals. Error bars represent standard error of the mean.

## MACDFNFGIC (chemically synthesized peptide sequence of BARP CBF6AA-15 associated with early flowering behavior)
[1]
  phenotype: tiny, slightly early flowering
Arabidopsis plants [2]
  rosette size: 5 mm
[3]
  phenotype in independent transformant lines: significant early-flowering phenotype
[4]
  number of rosette leaves at the time of flowering: fewer number of leaves at the time of flowering than the wild type
Arabidopsis plants [5]; lines 1, 2 and 3, inferred from rosette leaf number
  bolting earlier than Col-0: 3 to 4 days
Arabidopsis plants [5]; lines 1, 2 and 3, 16 hour light/8 hour dark, Col-0 11.5
  number of rosette leaves when bolting: 10 rosette leaves

## MACPASVSVC (chemically synthesized peptide sequence of BARP 6AA-33.1 associated with salt resistance and elongated root growth) [PEP6-32, BARP associated with salt resistance, root growth and red light insensitivity]
Arabidopsis seedlings; 0.5 μmol·m^−2·s^−1 blue light
  hypocotyl length versus controls: slightly longer hypocotyls
Arabidopsis seedlings; blue light, fluence rates of 2 and 10 μmol·m^−2·s^−1
  hypocotyl length versus controls: differences were not observed
Arabidopsis seedlings; constant red light, fluence rates of 1, 10 and 50 μmol·m^−2·s^−1, four lines
  hypocotyl length versus wild-type controls: longer hypocotyls than wild-type controls
Arabidopsis seedlings; darkness
  seedling growth versus wild-type: comparable to wild-type seedlings
Arabidopsis seedlings; far red light conditions
  hypocotyl length versus controls: No significant differences
Arabidopsis seedlings; white light
  hypocotyl length versus other seedlings: slightly longer hypocotyls
Arabidopsis plants [2]
  rosette size: 27 mm
[6]; plant-growth media containing 100 μM NaCl
  salt tolerance: salt tolerance
[6]; seedlings on vertical agar plates under light, versus wild-type
  root elongation: increase in root elongation
